The text below walks through data of ChEMBL document CHEMBL5223130, “Targeting SARS-CoV-2 Main Protease for Treatment of COVID-19: Covalent Inhibitors Structure-Activity Relationship Insights and Evolution Perspectives” (J Med Chem, 2022).

Data set [1] addresses T1, Replicase polyprotein 1ab (Severe acute respiratory syndrome coronavirus 2, UniProt P0DTD1). Kind of data set: Inhibition of SARS-CoV-2 Main protease using Dabcyl-KTSAVLQSGFRKME-Edans as substrate preincubated for 30 mins followed by substrate addition and measured after 4 hrs by fluorescence based assay.
The nature of data set [2]: Selectivity index, ratio of EC50 for antiviral activity against SARS-CoV-2 to […]. It is filed as toxicity.
Data set [3] relates to SARS-CoV-2. Kind of data set: Antiviral activity against SARS-CoV-2 USA-WA1/2020 infected in African green monkey Vero 76 cells assessed as reduction in virus induced cytopathic effect measured after 3 days by secondary viral yield reduction assay. The settings on record: Severe acute respiratory syndrome coronavirus 2, USA-WA1/2020, Vero 76, 72 h. It is filed as functional, organism-based. Background: Protection from cytopathic effect is a common read-out in antiviral testing.

The target of data set [4] is T1, Replicase polyprotein 1ab. Kind of data set: Inhibition of SARS-CoV-2 Main protease.
Data set [5] deals with T1, Replicase polyprotein 1ab. Nature of the data set: Binding affinity to C-terminal His-tagged SARS-CoV-2 BetaCoV/Wuhan/WIV04/2019 Main protease expressed in Escherichia coli assessed as inhibition constant.
Data set [6] has as its system SARS-CoV-2. It is filed as functional, organism-based, Vero E6. The settings on record: Severe acute respiratory syndrome coronavirus 2, USA-WA1/2020, Vero C1008, 72 h.
Data set [7] addresses T1, Replicase polyprotein 1ab. Kind of data set: Binding affinity to SARS-CoV-2 Main protease assessed as inhibition constant.
Data set [8] relates to SARS-CoV-2. Kind of data set: Antiviral activity against SARS-CoV-2 2019-nCoV/USA_WA1/2020 infected in human Huh-7 cells expressing ACE2 measured 24 hrs post infection. The settings on record: Severe acute respiratory syndrome coronavirus 2, 2019-nCoV/USA_WA1/2020, Huh-7, 24 h. It is filed as functional, organism-based.
For a further data set, the target named is Procathepsin L (Homo sapiens, UniProt P07711). Kind of data set: Inhibition of human Cathepsin L using Z-Phe-Arg-AMC as fluorogenic substrate incubated for 30 mins followed by substrate addition by fluorescence based analysis.
For data set [9], the system named is SARS-CoV-2. It is filed as functional, organism-based. The conditions noted are these: Severe acute respiratory syndrome coronavirus 2, Caco-2, 72 h.
In data set [10] the test system is SARS-CoV-2. It is filed as functional, organism-based. The conditions noted are these: Severe acute respiratory syndrome coronavirus 2, A549, 96 h.
The target of data set [11] is T1, Replicase polyprotein 1ab. Kind of data set: Inhibition of SARS-CoV-2 Main protease by FRET assay.
Data set [12] concerns SARS-CoV-2. It is filed as functional, organism-based. The conditions noted are these: Severe acute respiratory syndrome coronavirus 2, Caco-2.
Data set [13] deals with SARS-CoV-2. Kind of data set: microbe, parasite or virus in culture. The settings on record: Severe acute respiratory syndrome coronavirus 2.
In data set [14] the test system is SARS-CoV-2. It is filed as functional, organism-based, Vero E6. The conditions noted are these: Severe acute respiratory syndrome coronavirus 2, nCoV-2019BetaCoV/Wuhan/WIV04/2019, Vero C1008.
For data set [15], the target named is T1, Replicase polyprotein 1ab. Kind of data set: Inhibition of recombinant SARS-CoV-2 Main protease expressed in Escherichia coli BL21 (DE3) cells using Mca-AVLQSGFR-K(Dnp)K as substrate preincubated for 15 mins followed by substrate addition by FRET assay.
Data set [16] has as its system SARS-CoV-2. It is filed as functional, organism-based, Vero E6. The conditions noted are these: Severe acute respiratory syndrome coronavirus 2, WK-521, Vero C1008, 72 h.
Data set [17] concerns the target T1, Replicase polyprotein 1ab. Nature of the data set: Inhibition of C-terminal His-tagged SARS-CoV-2 BetaCoV/Wuhan/WIV04/2019 Main protease expressed in Escherichia coli using Dabcyl-KTSAVLQ/SGFRKME(Edans) as substrate by FRET assay.
Data set [18] relates to SARS-CoV-2. It is filed as functional, organism-based, Vero E6. The settings on record: Severe acute respiratory syndrome coronavirus 2, 2019-nCoV/USA_WA1/2020, Vero C1008, 72 h.

Square brackets hold non-standard residues; d marks the D form. Peptide text beside a SMILES is read from it. Nle = CCCC[C@H](N)C(=O)O

Procathepsin L, sequence (P07711 whole entry): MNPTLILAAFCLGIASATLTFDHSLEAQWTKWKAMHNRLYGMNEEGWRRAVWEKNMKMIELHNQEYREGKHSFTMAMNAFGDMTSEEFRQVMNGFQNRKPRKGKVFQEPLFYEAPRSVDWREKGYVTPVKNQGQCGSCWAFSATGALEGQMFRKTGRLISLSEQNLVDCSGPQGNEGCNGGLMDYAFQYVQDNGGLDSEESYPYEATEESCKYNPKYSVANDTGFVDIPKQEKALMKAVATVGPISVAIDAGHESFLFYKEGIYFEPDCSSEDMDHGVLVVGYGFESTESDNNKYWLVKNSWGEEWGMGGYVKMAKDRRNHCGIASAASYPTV

Consider `COc1ccc(-c2sc3n(c(NC(C)(C)C)c4[n+]3[C@H]3CC(=O)C=C[C@H]3OC4)c2-c2ccc(OC)cc2)cc1`, for which, in data set [1], the midpoint of inhibition, the IC50, lay at 20700 nM.
In the case of `O=C(N[C@@H](Cc1ccccc1)C(=O)N[C@@H](C[C@@H]1CCNC1=O)C(O)S(=O)(=O)[O-])OCc1ccccc1.[Na+]` (some centres undefined), the Ratio in data set [2] is on record as 45.78.
Consider `CSCC[C@@H](C=O)NC(=O)[C@H](CC(C)C)NC(=O)[C@H](CC(C)C)NC(C)=O` (Ac-Leu-Leu-Met-aldehyde), for which the EC50 (usually the concentration that produces a half-maximal response) in the data set with SARS-CoV-2 [3] amounted to 3700 nM.
For `O=C(CCl)N1N=C(c2cc(Cl)ccc2F)C(c2ccccc2)C1c1ccc2nccnc2c1` (centres undefined), the 50% inhibitory concentration (IC50) – broadly, the concentration that inhibits the measured activity by half – in data set [4] was determined as 14 nM.
Turning to `CC(C)C[C@H](NC(=O)OCc1ccccc1)C(=O)N[C@@H](C[C@@H]1CCNC1=O)C(=O)C(=O)NC1CC1`, the Ratio in data set [2] is given as 102.44. In data set [5], the inhibition constant Ki (usually a measure of affinity in units of concentration, obtained from inhibition or displacement) is 36 nM. Besides, the midpoint of the response with SARS-CoV-2 [6], the EC50, lay at 4610 nM.
In the case of `C=CC(=O)N(c1ccc(C(C)(C)C)cc1)[C@H](C(=O)NCCc1cccc(F)c1)c1cccnc1`, the inhibition constant (Ki) in data set [7] was found to be 38400 nM.
Consider `CC(C)C[C@H](NC(=O)OCc1cccc(C(F)(F)F)c1)C(=O)N[C@@H](C[C@@H]1CCNC1=O)C(O)S(=O)(=O)O` (some centres undefined), for which it took 6 nM to reach a half-maximal effect in the data set with SARS-CoV-2 [8] (EC50).
Turning to `O=C(Oc1cncc(Cl)c1)c1cccc2c1CCN2`, the Ratio in data set [2] was found to be 46.87. Further, the Ki in [7] was determined as 2150 nM.
`CC(C)C[C@H](NC(=O)[C@@H](NC(=O)OCc1ccccc1)[C@H](C)OC(C)(C)C)C(=O)N[C@H](C=O)C[C@@H]1CCNC1=O`: the IC50 against Procathepsin L is 1.2 nM. The EC50 came to 2500 nM in the data set with SARS-CoV-2 [9] and 310 nM with SARS-CoV-2 [10].
`CC(C)CCn1sc2ccc(Br)cc2c1=O` yielded an IC50 in data set [11] of 320 nM.
`C[C@H](NC[C@@H](c1cccnc1)N(C(=O)C(Cl)Cl)c1ccc(-c2ccccc2)cc1)c1ccccc1`: the Ratio in data set [2] was 4.76. This compound also registered an IC50 in [4] of 430 nM. This compound also showed an EC50 with SARS-CoV-2 [12] of 2050 nM.
In the data set with SARS-CoV-2 [13], `CC(C)(C)NC(=O)N[C@H](C(=O)N1C[C@H]2[C@@H]([C@H]1C(=O)NC(CC1CCC1)C(=O)C(N)=O)C2(C)C)C(C)(C)C` (some centres undefined) [BOCEPREVIR] displayed a concentration for a half-maximal effect (EC50) of 1900 nM.
Turning to `COc1cncc(Cn2[se]c3ccccc3c2=O)c1`, a half-maximal response in the data set with SARS-CoV-2 [14] (EC50) required 3170 nM. The IC50 in data set [15] was found to be 467 nM.
For `CC(C)C[C@H](NC(=O)OCc1ccccc1)C(=O)N[C@@H](CC(C)C)C(=O)N[C@@H](C[C@@H]1CCNC1=O)C(=O)C(=O)NC1CC1`, the Ki in [5] was 13 nM. Also, a half-maximal effect with SARS-CoV-2 [6] (EC50) was put at 11100 nM.
As for `Cc1cccc(C(=O)Oc2c(C)cccc2C(=O)Oc2cncc(Cl)c2)c1O`, the EC50 in the data set on SARS-CoV-2 [16] was 24000 nM.
For the compound `O=C[C@H](C[C@@H]1CCNC1=O)NC(=O)[C@@H]1[C@H]2CCC[C@H]2CN1C(=O)OCc1ccccc1`, the Ratio in [2] was 50.2.
As to `CCCC[C@@H](C=O)NC(=O)[C@H](CC(C)C)NC(=O)[C@H](CC(C)C)NC(C)=O` (Ac-Leu-Leu-[Nle]-aldehyde), 970 nM corresponded to half-maximal inhibition in [17] (IC50).
In the case of `O=C(c1cccc(Cn2[se]c3ccccc3c2=O)c1)N1CCOCC1`, the 50% effective concentration (EC50) in the data set on SARS-CoV-2 [14] turned out to be 3740 nM. Further, in data set [15], the 50% inhibitory concentration (IC50) came out at 345 nM.
`CCC[C@H](NC(=O)[C@H](CC(C)C)NC(=O)OCc1ccccc1)C(=O)C(=O)NCc1ccccn1`: in the data set with SARS-CoV-2 [3], the EC50 amounted to 780 nM.
In the data set on SARS-CoV-2 [18], `CCOC(=O)/C=C/[C@H](C[C@@H]1CCNC1=O)NC(=O)[C@H](CC(C)C)NC(=O)[C@@H](NC(=O)OCc1ccccc1)[C@@H](C)OC(C)(C)C` returned an EC50 of 2880 nM.
In [4], `O=C1C=CC(=O)c2c(O)ccc(O)c21` [NAPHTHAZALIN] showed an IC50 of 490 nM.
Compound `O=c1c2ccccc2[se]n1Cc1ccc(Cl)cc1` showed an EC50 with SARS-CoV-2 [14] of 1780 nM. The 50% inhibitory concentration (IC50) in data set [15] stood at 824 nM.
With `C[C@H](NC[C@@H](c1cccnc1)N(C(=O)C(Br)(Br)Br)c1ccc(-c2ccccc2)cc1)c1ccccc1`, the Ratio in [2] was 26.87. Moreover, half-maximal inhibition in data set [4] (IC50) required 80 nM. In the data set with SARS-CoV-2 [12], this compound displayed a concentration giving a half-maximal response (EC50) of 2150 nM.
In the data set on SARS-CoV-2 [14], `COc1cccc(Cn2[se]c3ccccc3c2=O)c1` showed an EC50 of 4500 nM. Moreover, the IC50 in data set [15] is 363 nM.
Take `C=CCn1ccc2c(C(=O)Oc3cncc(Cl)c3)cccc21`: in data set [2], the Ratio was found to be 205.47.
